Earlier results as cited in US20110177042A1, “Method for Dedifferentiating Melanocytes” (priority 2008, published 2011).

System: Notch1
Conditions: identified in cited literature (Xiao 2009; Adler 2008; Stockhausen 2005)

SMILES: O=C(CCCCCCC(=O)NO)NO [suberoyl bis-hydroxamic acid]
- Notch1 activation: strong Notch1 activators

SMILES: CCCC(CCC)C(=O)O [valproic acid]
- Notch1 activation: strong Notch1 activators
